Measurements: ChEMBL document CHEMBL1697781, “Assessment of the health effects of chemicals in humans: II. Construction of an adverse effects database for QSAR modeling” (Curr Drug Discov Technol, 2004)

Tested on: Hepatotoxicity
Experiment: FDA HLAED, liver enzyme composite activity
Conditions: human
Wherever GGT Increase - Index Value is given: reference of the scale not given here.
Wherever LDH Increase - Index Value is given: reference of the scale not given here.

| Compound | Composite Activity - Active | Composite Activity - Marginal | Composite Activity - Score |
| --- | --- | --- | --- |
| Cn1nnnc1SCC1=C(C(=O)O)N2C(=O)[C@@H](NC(=O)[C@H](O)c3ccccc3)[C@H]2SC1 [CEFAMANDOLE] | 0 | 0 | Inactive |
| C=CC1=C(C(=O)O)N2C(=O)[C@@H](NC(=O)/C(=N\OCC(=O)O)c3csc(N)n3)[C@H]2SC1 [CEFIXIME] | 0 | 0 | Inactive |
| CO[C@@]1(NC(=O)CSCC#N)C(=O)N2C(C(=O)O)=C(CSc3nnnn3C)CS[C@@H]21 [CEFMETAZOLE] | 0 | 0 | Inactive |
| O=C(O)C1=C(CSc2nnnn2CS(=O)(=O)O)CS[C@@H]2[C@H](NC(=O)[C@H](O)c3ccccc3)C(=O)N12 [CEFONICID] | 0 | 0 | Inactive |
| CCN1CCN(C(=O)N[C@@H](C(=O)N[C@@H]2C(=O)N3C(C(=O)O)=C(CSc4nnnn4C)CS[C@H]23)c2ccc(O)cc2)C(=O)C1=O [CEFOPERAZONE] | 0 | 0 | Inactive |

Tested on: Hepatotoxicity
Experiment: FDA HLAED, alkaline phosphatase increase
Conditions: human

| Compound | Alkaline Phosphatase Increase - Activity Score | Alkaline Phosphatase Increase - Index Value | Alkaline Phosphatase Increase - Number of Reports |
| --- | --- | --- | --- |
| Cn1nnnc1SCC1=C(C(=O)O)N2C(=O)[C@@H](NC(=O)[C@H](O)c3ccccc3)[C@H]2SC1 [CEFAMANDOLE] | Inactive | 0 | < 4 |
| C=CC1=C(C(=O)O)N2C(=O)[C@@H](NC(=O)/C(=N\OCC(=O)O)c3csc(N)n3)[C@H]2SC1 [CEFIXIME] | Inactive | 13.7 | < 4 |
| CO[C@@]1(NC(=O)CSCC#N)C(=O)N2C(C(=O)O)=C(CSc3nnnn3C)CS[C@@H]21 [CEFMETAZOLE] | Inactive | 0.1 | < 4 |
| O=C(O)C1=C(CSc2nnnn2CS(=O)(=O)O)CS[C@@H]2[C@H](NC(=O)[C@H](O)c3ccccc3)C(=O)N12 [CEFONICID] | Inactive | 12.7 | < 4 |
| CCN1CCN(C(=O)N[C@@H](C(=O)N[C@@H]2C(=O)N3C(C(=O)O)=C(CSc4nnnn4C)CS[C@H]23)c2ccc(O)cc2)C(=O)C1=O [CEFOPERAZONE] | Inactive | 0 | < 4 |

Tested on: Hepatotoxicity
Experiment: FDA HLAED, serum glutamic oxaloacetic transaminase (SGOT) increase
Conditions: human

| Compound | SGOT Increase - Activity Score | SGOT Increase - Index Value | SGOT Increase - Number of Reports |
| --- | --- | --- | --- |
| Cn1nnnc1SCC1=C(C(=O)O)N2C(=O)[C@@H](NC(=O)[C@H](O)c3ccccc3)[C@H]2SC1 [CEFAMANDOLE] | Inactive | 0 | < 4 |
| C=CC1=C(C(=O)O)N2C(=O)[C@@H](NC(=O)/C(=N\OCC(=O)O)c3csc(N)n3)[C@H]2SC1 [CEFIXIME] | Inactive | 0.4 | >= 4 |
| CO[C@@]1(NC(=O)CSCC#N)C(=O)N2C(C(=O)O)=C(CSc3nnnn3C)CS[C@@H]21 [CEFMETAZOLE] | Inactive | 0 | < 4 |
| O=C(O)C1=C(CSc2nnnn2CS(=O)(=O)O)CS[C@@H]2[C@H](NC(=O)[C@H](O)c3ccccc3)C(=O)N12 [CEFONICID] | Inactive | 0 | < 4 |
| CCN1CCN(C(=O)N[C@@H](C(=O)N[C@@H]2C(=O)N3C(C(=O)O)=C(CSc4nnnn4C)CS[C@H]23)c2ccc(O)cc2)C(=O)C1=O [CEFOPERAZONE] | Inactive | 0.4 | >= 4 |

Tested on: Hepatotoxicity
Experiment: FDA HLAED, serum glutamic pyruvic transaminase (SGPT) increase
Conditions: human

| Compound | SGPT Increase - Activity Score | SGPT Increase - Index Value | SGPT Increase - Number of Reports |
| --- | --- | --- | --- |
| Cn1nnnc1SCC1=C(C(=O)O)N2C(=O)[C@@H](NC(=O)[C@H](O)c3ccccc3)[C@H]2SC1 [CEFAMANDOLE] | Inactive | 0 | < 4 |
| C=CC1=C(C(=O)O)N2C(=O)[C@@H](NC(=O)/C(=N\OCC(=O)O)c3csc(N)n3)[C@H]2SC1 [CEFIXIME] | Inactive | 0.4 | >= 4 |
| CO[C@@]1(NC(=O)CSCC#N)C(=O)N2C(C(=O)O)=C(CSc3nnnn3C)CS[C@@H]21 [CEFMETAZOLE] | Inactive | 0 | < 4 |
| O=C(O)C1=C(CSc2nnnn2CS(=O)(=O)O)CS[C@@H]2[C@H](NC(=O)[C@H](O)c3ccccc3)C(=O)N12 [CEFONICID] | Inactive | 0 | < 4 |
| CCN1CCN(C(=O)N[C@@H](C(=O)N[C@@H]2C(=O)N3C(C(=O)O)=C(CSc4nnnn4C)CS[C@H]23)c2ccc(O)cc2)C(=O)C1=O [CEFOPERAZONE] | Inactive | 0.2 | < 4 |

Tested on: Hepatotoxicity
Experiment: FDA HLAED, lactate dehydrogenase (LDH) increase
Conditions: human

| Compound | LDH Increase - Activity Score | LDH Increase - Index Value | LDH Increase - Number of Reports |
| --- | --- | --- | --- |
| Cn1nnnc1SCC1=C(C(=O)O)N2C(=O)[C@@H](NC(=O)[C@H](O)c3ccccc3)[C@H]2SC1 [CEFAMANDOLE] | Inactive | 0 | < 4 |
| C=CC1=C(C(=O)O)N2C(=O)[C@@H](NC(=O)/C(=N\OCC(=O)O)c3csc(N)n3)[C@H]2SC1 [CEFIXIME] | Inactive | 0.1 | < 4 |
| CO[C@@]1(NC(=O)CSCC#N)C(=O)N2C(C(=O)O)=C(CSc3nnnn3C)CS[C@@H]21 [CEFMETAZOLE] | Inactive | 25.5 | < 4 |
| O=C(O)C1=C(CSc2nnnn2CS(=O)(=O)O)CS[C@@H]2[C@H](NC(=O)[C@H](O)c3ccccc3)C(=O)N12 [CEFONICID] | Inactive | 0 | < 4 |
| CCN1CCN(C(=O)N[C@@H](C(=O)N[C@@H]2C(=O)N3C(C(=O)O)=C(CSc4nnnn4C)CS[C@H]23)c2ccc(O)cc2)C(=O)C1=O [CEFOPERAZONE] | Inactive | 0.1 | < 4 |

Tested on: Hepatotoxicity
Experiment: FDA HLAED, gamma-glutamyl transferase (GGT) increase
Conditions: human

| Compound | GGT Increase - Activity Score | GGT Increase - Index Value | GGT Increase - Number of Reports |
| --- | --- | --- | --- |
| Cn1nnnc1SCC1=C(C(=O)O)N2C(=O)[C@@H](NC(=O)[C@H](O)c3ccccc3)[C@H]2SC1 [CEFAMANDOLE] | Inactive | 0 | < 4 |
| C=CC1=C(C(=O)O)N2C(=O)[C@@H](NC(=O)/C(=N\OCC(=O)O)c3csc(N)n3)[C@H]2SC1 [CEFIXIME] | Inactive | 0 | < 4 |
| CO[C@@]1(NC(=O)CSCC#N)C(=O)N2C(C(=O)O)=C(CSc3nnnn3C)CS[C@@H]21 [CEFMETAZOLE] | Inactive | 0 | < 4 |
| O=C(O)C1=C(CSc2nnnn2CS(=O)(=O)O)CS[C@@H]2[C@H](NC(=O)[C@H](O)c3ccccc3)C(=O)N12 [CEFONICID] | Inactive | 0 | < 4 |
| CCN1CCN(C(=O)N[C@@H](C(=O)N[C@@H]2C(=O)N3C(C(=O)O)=C(CSc4nnnn4C)CS[C@H]23)c2ccc(O)cc2)C(=O)C1=O [CEFOPERAZONE] | Inactive | 0 | < 4 |
